In US20220267376A1, “P53 ACTIVATOR PEPTIDOMIMETIC MACROCYCLES” (Merck Sharp & Dohme Corp., priority 2019, published 2022):
Entries after “also recorded” stand apart in the source; their conditions may differ. Read-outs that look alike come from different tables or passages of the source. Starred links: 1 amine or outer side, 2 acyl side, 3 side chain; linkers in the order of their positions; H or OH if unused. Positions of bridges follow the written chain, without caps; N, C: chain ends. Non-standard residues stand in square brackets, D forms with d. Residues, ends and D or L forms follow the SMILES beside them. ξ: configuration not given here. dPhe(4-CF3) = N[C@H](Cc1ccc(C(F)(F)F)cc1)C(=O)O; dTrp(6-F) = N[C@H](Cc1c[nH]c2cc(F)ccc12)C(=O)O; ξPhe(4-CF3) = NC(Cc1ccc(C(F)(F)F)cc1)C(=O)O; X1 = C[C@](CCCCC=[*:3])(N[*:1])C(=O)[*:2]; S8 = C=CCCCCCC[C@](C)(N)C(=O)O; R5 = C=CCCC[C@@](C)(N)C(=O)O; S5 = C=CCCC[C@](C)(N)C(=O)O

Tests used:
[1] = Circular dichroism (CD) helicity of peptide in solution; format: physicochemical; conditions: 25° C.
Protocol: Prior to the experiment, 5 μl of the 10 mM stock peptide was mixed with 45 μl of 100% methanol, and dried for 2 hours in the SpeedVac concentrator (Thermo Scientific). The dried peptide was reconstituted in buffer, containing 1 mM HEPES pH 7.4 and 5% methanol, to a concentration of 1 mM. The peptide sample was placed in a quartz cuvette with a path length of 0.2 cm and the CD spectrum was recorded from 300 to 190 nm at 25° C., using the Chirascan-plus qCD machine (Applied Photophysics). […] An estimate of the secondary stmcture components of the peptide was carried out by converting the CD spectrum to mean residue ellipticity, before deconvoluting using the CDNN software (distributed by Applied Photophysics). All experiments were done in duplicates.

MDM2 [2] = target: T1, MDM2 (Homo sapiens, UniProt Q00987); assay: MDM2 binding assay, fluorescence polarization (FP) competition; conditions: for Kd: apparent Kd, competition with FAM-labeled 12/1 peptide
T1 construct: GST (N); His6 (N); made in house; host or cells: E. coli BL21 (DE3) Rosetta T1R

MDM4 = target: T2, MDM4 (Homo sapiens, UniProt O15151); assay: Fluorescence polarization (FP) binding to MDM4/MDMX; conditions: for Kd: FP assay, MDM4 (MDMX)
T2 construct: GST; made in house
T2 sequence (O15151 1-490): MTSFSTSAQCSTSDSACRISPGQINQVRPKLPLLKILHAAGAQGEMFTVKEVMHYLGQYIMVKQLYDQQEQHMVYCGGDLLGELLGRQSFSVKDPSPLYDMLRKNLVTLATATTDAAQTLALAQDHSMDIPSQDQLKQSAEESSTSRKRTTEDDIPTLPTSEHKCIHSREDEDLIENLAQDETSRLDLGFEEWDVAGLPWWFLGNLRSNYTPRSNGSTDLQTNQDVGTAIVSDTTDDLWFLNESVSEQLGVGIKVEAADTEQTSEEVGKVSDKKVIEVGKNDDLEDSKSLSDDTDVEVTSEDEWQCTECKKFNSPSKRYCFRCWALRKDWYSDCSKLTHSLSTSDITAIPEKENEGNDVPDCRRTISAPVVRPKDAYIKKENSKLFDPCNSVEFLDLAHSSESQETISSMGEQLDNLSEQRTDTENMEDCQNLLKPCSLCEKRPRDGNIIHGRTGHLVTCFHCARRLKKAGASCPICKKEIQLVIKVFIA

MDM2 [3] = target: T1, MDM2; assay: Surface plasmon resonance (SPR) binding to MDM2; conditions: MDM2
[4] = target: human MDM2 protein (amino acids 1-125) (Homo sapiens, UniProt Q00987); assay: Isothermal titration calorimetry (ITC) with MDM2; format: binding; parameters: purified recombinant human MDM2 protein (amino acids 1-125); GST (N); His6 (N); TEV cleavage site ENLYFQG (N); made in house; host or cells: E. coli BL21 (DE3) Rosetta T1R; conditions: for ITC TΔS / ITC ΔG: binding to MDM2; for ITC ΔH: enthalpy of binding to MDM2
Protocol: All experiments were performed in duplicates using the MicroCal PEAQ-ITC Automated system. […] For peptides that are insoluble at high concentrations, reverse ITC was carded out by titrating 200 μM of MDM2 protein into 20 μM of peptide. […] Data analysis was carried out using the MicroCal PEAQ-ITC Analysis Software.

[5] = system: HCT116 p53 reporter cells; assay: p53 beta-lactamase reporter gene assay; format: cell-based; conditions: for p53 activation in reporter cells: 16 hours, up to 50 μM; for EC50: read-out: P53 activity EC50 (μM) (2% FBS) 16 H, HCT116 p53 reporter, 2% FBS, 16 H
Protocol: The cells were incubated overnight and followed by removal of cell growth media and replaced with Opti-MEM either containing 0% FBS or 10% FBS. […] Measurements were done using Envision multiplate reader (Perkin-Elmer).

HCT116 cells = assay: Lactate dehydrogenase (LDH) release assay; format: cell-based; conditions: up to 50 μM
Protocol: The cells were incubated overnight followed by removal of cell media and addition of Opti-MEM Medium without FBS. Cells were then treated with peptides for 4/16 hours in Opti-MEM either in 10% FBS or serum free. Final concentration of DMSO was 0.5%. […] Measurements were carried out using Tecan plate reader.

[6] = system: Jump-In™ T-REx™ CHO-K1 BLA cells; assay: Tetracycline beta-lactamase reporter gene assay (counterscreen); format: cell-based; conditions: for EC50: read-out: Counterscreen EC50 (μM) (2% FBS) 16 H, 2% FBS, 16 H
Protocol: Cells were seeded into a 384-well plate a density of 4000 cells per well. […] Measurements were carried out using Envision multiplate reader (Perkin-Elmer).

human MDM2 protein (amino acids 1-125), sequence (Q00987 1-125): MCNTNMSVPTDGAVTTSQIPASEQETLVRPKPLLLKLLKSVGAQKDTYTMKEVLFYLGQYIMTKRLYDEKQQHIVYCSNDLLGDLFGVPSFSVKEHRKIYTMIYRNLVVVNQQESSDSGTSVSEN

CD (% helicity) [1] [%] | binding to MDM2 in FP assay (MDM2 [2]) | binding to MDMX in FP assay (MDM4) | Kd (MDM2 [3]; Table 1) [µM] | Kd (MDM4) [nM] | Kd (MDM2 [3]; Table 2) [µM] | EC50 [5] [µM] | LDH leakage (HCT116 cells) | Kd (MDM2 [2]) [nM] | EC50 ([5]; listed as DPMI-δ(1-5)) [µM] | SMILES | ITC TΔS [4] [kJ/mol] | ITC ΔG [4] [kJ/mol] | ITC ΔH [4] [kJ/mol] | p53 activation in reporter cells [5] | counterscreen activity [6] | EC50 [6] [µM]
– | – | – | – | – | – | – | – | – | – | CC(C)C[C@@H](NC(=O)[C@@H](CC(C)C)NC(=O)[C@@H](CCCCN)NC(=O)[C@@H](CCC(=O)O)NC(=O)[C@@H](Cc1ccc(C(F)(F)F)cc1)NC(=O)[C@@H](CC(N)=O)NC(=O)[C@@H](C)NC(=O)[C@@H](Cc1ccc(O)cc1)NC(=O)[C@@H](Cc1c[nH]c2cc(F)ccc12)NC(=O)[C@@H](C)NC(=O)[C@H](N)[C@H](C)O)C(=O)N[C@H](CCCNC(=N)N)C(N)=O [^DPMI-δ, reference compound] | – | – | – | no p53 activation | – | –
20 | – | – | < 0.001 | 2.1 | < 0.001 | 34.6 | No detectable LDH leakage | – | – | CC(C)C[C@H]1NC(=O)[C@@H](CC(C)C)NC(=O)[C@@](C)(NC(=O)[C@@H](CCC(=O)O)NC(=O)[C@@H](Cc2ccc(C(F)(F)F)cc2)NC(=O)[C@@H](CC(N)=O)NC(=O)[C@@]2(C)CCC/C=C\CCC[C@@](C)(N)C(=O)N[C@H](C)C(=O)N[C@H](Cc3c[nH]c4cc(F)ccc34)C(=O)N[C@H](Cc3ccc(O)cc3)C(=O)N2)CCC/C=C\CCC[C@](C)(C(N)=O)NC1=O [^DPMI-δ (1-5,9-12)] (H-[R5][dA][dTrp(6-F)][dY][R5][dN][dPhe(4-CF3)][dE][S5][dL][dL][R5]-NH2; staple (Z) 1-5, 9-12) | – | – | – | – | negligible counter screen activity | ≥ 50
26.5 | no binding | no binding | 0.0074 | – | – | – | did not cause LDH leakage | 3350 | – | CC(C)C[C@@H](NC(=O)[C@@H](CC(C)C)NC(=O)[C@@]1(C)CCC/C=C\CCCCCC[C@](C)(NC(=O)[C@H](N)[C@H](C)O)C(=O)N[C@H](Cc2c[nH]c3cc(F)ccc23)C(=O)N[C@H](Cc2ccc(O)cc2)C(=O)N[C@H](C)C(=O)N[C@H](CC(N)=O)C(=O)NC(Cc2ccc(C(F)(F)F)cc2)C(=O)N[C@H](CCC(=O)O)C(=O)N1)C(=O)N[C@H](CCCNC(=N)N)C(N)=O (stereo partly drawn) [^DPMI-(2-9)] (H-[dT][S8][dTrp(6-F)][dY][dA][dN][ξPhe(4-CF3)][dE][R5][dL][dL][dR]-NH2; staple (Z) 2-9) | – | – | – | unable to activate cellular p53 | – | ≥ 50
24.7 | – | – | < 0.001 | 4.5 | < 0.001 | 13.7 | – | 13.2 | 17.5 | CC(C)C[C@@H](NC(=O)[C@@H](CC(C)C)NC(=O)[C@@H](CCCCN)NC(=O)[C@@H](CCC(=O)O)NC(=O)[C@@H](Cc1ccc(C(F)(F)F)cc1)NC(=O)[C@@H](CC(N)=O)NC(=O)[C@@]1(C)CCCCCC/C=C\CCC[C@@](C)(N)C(=O)N[C@H](C)C(=O)N[C@H](Cc2c[nH]c3cc(F)ccc23)C(=O)N[C@H](Cc2ccc(O)cc2)C(=O)N1)C(=O)N[C@H](CCCNC(=N)N)C(N)=O [^DPMI-δ (1-5)] | 12.7 | -48.5 | -66.1 | – | didn't exhibit activity | ≥ 50
38.0 | no binding | no binding | 0.029 | – | – | – | did not cause LDH leakage | – | – | CC(C)C[C@@H](NC(=O)[C@@H](CC(C)C)NC(=O)[C@@]1(C)CCCC/C=C\CCC[C@@](C)(NC(=O)[C@@H](Cc2ccc(O)cc2)NC(=O)[C@@H](Cc2c[nH]c3cc(F)ccc23)NC(=O)[C@@H](C)NC(=O)[C@H](N)[C@H](C)O)C(=O)N[C@H](CC(N)=O)C(=O)N[C@H](Cc2ccc(C(F)(F)F)cc2)C(=O)N[C@H](CCC(=O)O)C(=O)N1)C(=O)N[C@H](CCCNC(=N)N)C(N)=O [^DPMI-δ (5-9)] (H-[dT][dA][dTrp(6-F)][dY][R5][dN][dPhe(4-CF3)][dE][X1][dL][dL][dR]-NH2; staple (Z) 5-9) | – | – | – | unable to activate cellular p53 | – | 47

SMILES | CD (% helicity) [1] [%] | binding to MDM2 in FP assay (MDM2 [2]) | binding to MDMX in FP assay (MDM4) | Kd (MDM2 [3]; Table 1) [µM] | Kd (MDM4) [nM] | Kd (MDM2 [3]; Table 2) [µM] | EC50 [5] [µM] | LDH leakage (HCT116 cells) | Kd (MDM2 [2]) [nM] | EC50 ([5]; listed as DPMI-δ(1-5)) [µM] | ITC TΔS [4] [kJ/mol] | ITC ΔG [4] [kJ/mol] | ITC ΔH [4] [kJ/mol] | p53 activation in reporter cells [5] | counterscreen activity [6] | EC50 [6] [µM]
CC(C)C[C@@H](NC(=O)[C@@]1(C)CCC/C=C\CCC[C@@](C)(NC(=O)[C@@H](C)NC(=O)[C@@H](Cc2ccc(O)cc2)NC(=O)[C@@H](Cc2c[nH]c3cc(F)ccc23)NC(=O)[C@@H](C)NC(=O)[C@H](N)[C@H](C)O)C(=O)N[C@H](Cc2ccc(C(F)(F)F)cc2)C(=O)N[C@H](CCC(=O)O)C(=O)N[C@H](CCCCN)C(=O)N1)C(=O)N[C@H](CCCNC(=N)N)C(N)=O [^DPMI-δ (6-10)] | 39.9 | no binding; also recorded: non-binder | no binding | 0.059 | – | – | – | – | – | – | -7.78 | -46.9 | -39.1 | – | – | –
